Source: patent US8846951B2 (AbbVie Inc., priority 2009, dated 2014)
Where two headings read alike, the source gives them in different places.

Key:
5HT2B receptors = target: T1, 5HT2B receptors (Homo sapiens, UniProt P41595); assay: Human 5-HT2B functional high throughput screening assay in CHO-K1 cells (calcium flux); assay type: cell-based; conditions: for EC50: CHO-K1 cells, calcium flux
T1 construct: expressed in transfected cells; host or cells: CHO-K1 cells
Procedure, shortened: (§1)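 CHO-K1 cells overexpressing human 5-HT2C or 5-HT2B were serum-starved overnight and loaded with Ca4 dye plus 2.5 mM probenecid for 60 min at RT. Calcium flux was read on FLIPR (ex 480/em 530 nm, 25° C) over 3 min after addition of compound, tested from 10 μM in 1:10 steps over 6 points with 0.2% DMSO. EC50 and Emax relative to serotonin came from a 4-parameter logistic fit.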

5HT2C receptors = target: T2, 5HT2C receptors (Homo sapiens, UniProt P28335); assay: Human 5-HT2C functional high throughput screening assay in CHO-K1 cells (calcium flux); assay type: cell-based; design: expressed in transfected cells; host or cells: CHO-K1 cells; conditions: for EC50: CHO-K1 cells, calcium flux; for Emax: CHO-K1, 5-HT2C, maximum functional response as percentage relative to the effect of serotonin
T2 sequence (P28335 33-458): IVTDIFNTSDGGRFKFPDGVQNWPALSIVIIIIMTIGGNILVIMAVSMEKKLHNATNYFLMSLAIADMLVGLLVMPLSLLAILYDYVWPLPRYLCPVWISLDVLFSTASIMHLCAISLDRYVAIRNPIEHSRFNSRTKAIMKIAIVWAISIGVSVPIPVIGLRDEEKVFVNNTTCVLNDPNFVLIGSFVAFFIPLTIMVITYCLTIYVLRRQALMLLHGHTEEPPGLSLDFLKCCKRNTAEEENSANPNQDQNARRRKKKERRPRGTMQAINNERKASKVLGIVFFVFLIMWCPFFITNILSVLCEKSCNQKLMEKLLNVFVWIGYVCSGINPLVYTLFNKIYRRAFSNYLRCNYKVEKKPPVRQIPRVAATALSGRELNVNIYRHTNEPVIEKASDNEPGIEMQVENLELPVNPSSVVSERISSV
Procedure, shortened: as §1

[1] = 5-HT2B agonist activity, read-out: EC50
[2] = 5-HT2B, maximum functional response as percentage relative to the effect of serotonin
[3] = 5-HT2C agonist activity, read-out: EC50

T1 sequence (P41595 whole entry): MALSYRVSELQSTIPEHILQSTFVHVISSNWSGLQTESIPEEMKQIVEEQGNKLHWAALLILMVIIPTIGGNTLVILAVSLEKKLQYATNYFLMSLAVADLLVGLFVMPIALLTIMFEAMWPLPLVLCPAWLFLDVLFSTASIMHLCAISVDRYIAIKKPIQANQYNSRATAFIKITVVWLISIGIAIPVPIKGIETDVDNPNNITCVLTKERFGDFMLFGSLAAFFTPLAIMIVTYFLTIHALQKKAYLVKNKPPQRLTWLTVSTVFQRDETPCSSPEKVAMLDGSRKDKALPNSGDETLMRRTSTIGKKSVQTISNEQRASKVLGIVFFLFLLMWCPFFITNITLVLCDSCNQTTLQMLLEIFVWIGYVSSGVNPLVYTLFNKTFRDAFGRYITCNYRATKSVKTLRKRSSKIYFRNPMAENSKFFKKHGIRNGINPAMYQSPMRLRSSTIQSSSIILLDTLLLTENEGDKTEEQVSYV

Row | Structure (SMILES) | EC50 (5HT2B receptors; [1]) [nM] | Emax (5HT2B receptors; [2]) | EC50 (5HT2C receptors; [3]) [nM] | Emax (5HT2C receptors; read-out: Emax) [%] | EC50 (5HT2B receptors; EC50, 5-HT2B agonist activity) [nM] | Emax (5HT2C receptors) [%] | EC50 (5HT2C receptors; EC50, 5-HT2C agonist activity) [nM] | Emax (5HT2B receptors; CHO-K1) [%]
1 | COc1cc(F)ccc1-c1ccc2c(c1)C(=O)NC[C@@H]1CN(C)C[C@@H]21 (relative stereo) [Example 299, Trans-8-(4-fluoro-2-methoxyphenyl)-2-methyl-2,3,3a,4,5,10b-hexahydropyrrolo[3,4-d][2]benzazepin-6(1H)-one] | > 10000 | inactive | 10 | 100 | – | – | – | –
2 | COc1ccc(F)cc1-c1ccc2c(c1)C(=O)NC[C@@H]1CN(C)C[C@@H]21 (relative stereo) [Example 300, Trans-8-(5-fluoro-2-methoxyphenyl)-2-methyl-2,3,3a,4,5,10b-hexahydropyrrolo[3,4-d][2]benzazepin-6(1H)-one] | > 10000 | inactive | 50 | 100 | – | – | – | –
3 | COc1ccc(C(C)C)cc1-c1ccc2c(c1)C(=O)NC[C@@H]1CN(C)C[C@@H]21 (relative stereo) [Example 301, Trans-8-(5-isopropyl-2-methoxyphenyl)-2-methyl-2,3,3a,4,5,10b-hexahydropyrrolo[3,4-d][2]benzazepin-6(1H)-one] | > 10000 | inactive | 30 | 105 | – | – | – | –
4 | COc1ccc(-c2ccc3c(c2)C(=O)NC[C@@H]2CN(C)C[C@@H]32)c(OC)c1 (relative stereo) [Example 303, Trans-8-(2,4-dimethoxyphenyl)-2-methyl-2,3,3a,4,5,10b-hexahydropyrrolo[3,4-d][2]benzazepin-6(1H)-one] | > 10000 | inactive | 40 | 100 | – | – | – | –
5 | CN1C[C@H]2CNC(=O)c3cc(/C=C/C4CC4)ccc3[C@@H]2C1 (relative stereo) [Example 305, Trans-8-[(E)-2-cyclopropylvinyl]-2-methyl-2,3,3a,4,5,10b-hexahydropyrrolo[3,4-d][2]benzazepin-6(1H)-one] | – | inactive | – | – | > 10000 | 90 | 6 | –
6 | Cc1cc(-c2ccc3c(c2)C(=O)NC[C@@H]2CN(C)C[C@@H]32)ccc1F (relative stereo) [Example 314, Trans-8-(4-fluoro-3-methylphenyl)-2-methyl-2,3,3a,4,5,10b-hexahydropyrrolo[3,4-d][2]benzazepin-6(1H)-one] | > 10000 | inactive | 3 | 95 | – | – | – | –
7 | COc1cc(-c2ccc3c(c2)C(=O)NC[C@@H]2CN(C)C[C@@H]32)ccc1F (relative stereo) [Example 320, Trans-8-(4-fluoro-3-methoxyphenyl)-2-methyl-2,3,3a,4,5,10b-hexahydropyrrolo[3,4-d][2]benzazepin-6(1H)-one] | > 10000 | inactive | 7 | 90 | – | – | – | –
8 | CN1CC[C@@H]2CNC[C@H]2c2ccccc21 (relative stereo) [Example 327, Trans-6-methyl-1,2,3,3a,4,5,6,10b-octahydropyrrolo[3,4-d][1]benzazepine] | – | – | – | – | 200 | 95 | 10 | 75
9 | CC(=O)N1CC[C@@H]2CNC[C@H]2c2ccccc21 (relative stereo) [Example 328, 1-[Trans-2,3,3a,4,5,10b-hexahydropyrrolo[3,4-d][1]benzazepin-6(1H)-yl]ethanone] | 4000 | – | 900 | – | – | 90 | – | 60
10 | c1ccc(CN2CC[C@@H]3CNC[C@H]3c3ccccc32)cc1 (relative stereo) [Example 329, Trans-6-benzyl-1,2,3,3a,4,5,6,10b-octahydropyrrolo[3,4-d][1]benzazepine] | 2000 | – | 1000 | – | – | 70 | – | 15
11 | CN1C[C@H]2CCN(C)c3ccccc3[C@@H]2C1 (relative stereo) [Example 330, Trans-2,6-dimethyl-1,2,3,3a,4,5,6,10b-octahydropyrrolo[3,4-d][1]benzazepine] | – | – | – | – | 300 | 90 | 70 | 30
12 | CN1C[C@H]2CNC(=O)c3cc(-c4ccc(F)cc4F)ccc3[C@@H]2C1 (relative stereo) [Example 331, Trans-8-(2,4-difluorophenyl)-2-methyl-2,3,3a,4,5,10b-hexahydropyrrolo[3,4-d][2]benzazepin-6(1H)-one] | > 10000 | inactive | 200 | 95 | – | – | – | –
13 | Brc1cccc2c1OCC[C@H]1CNC[C@@H]21 (relative stereo) [Example 332, Cis-7-bromo-2,3,3a,4,5,10b-hexahydro-1H-[1]benzoxepino[4,5-c]pyrrole] | – | – | – | – | 30 | 90 | 0.9 | 20
14 | CC(C)C(=O)N1CC[C@@H]2CNC[C@H]2c2ccccc21 (relative stereo) [Example 333, 1-[Trans-2,3,3a,4,5,10b-hexahydropyrrolo[3,4-d][1]benzazepin-6(1H)-yl]-2-methylpropan-1-one] | 2000 | – | 300 | – | – | 90 | – | 40

The next lines start with results.

Row | EC50 (5HT2B receptors; [1]) [nM] | Emax (5HT2B receptors; [2]) | EC50 (5HT2C receptors; [3]) [nM] | Emax (5HT2C receptors; read-out: Emax) [%] | Structure (SMILES) | EC50 (5HT2B receptors; EC50, 5-HT2B agonist activity) [nM] | Emax (5HT2C receptors) [%] | EC50 (5HT2C receptors; EC50, 5-HT2C agonist activity) [nM] | Emax (5HT2B receptors; CHO-K1) [%]
15 | > 10000 | inactive | 400 | 80 | CN1C[C@H]2CNC(=O)c3cc(N4CCCCC4)ccc3[C@@H]2C1 (relative stereo) [Example 298, Trans-2-methyl-8-(piperidin-1-yl)-2,3,3a,4,5,10b-hexahydropyrrolo[3,4-d][2]benzazepin-6(1H)-one] | – | – | – | –
16 | > 10000 | inactive | 70 | 95 | COc1cc(C)ccc1-c1ccc2c(c1)C(=O)NC[C@@H]1CN(C)C[C@@H]21 (relative stereo) [Example 302, Trans-8-(2-methoxy-4-methylphenyl)-2-methyl-2,3,3a,4,5,10b-hexahydropyrrolo[3,4-d][2]benzazepin-6(1H)-one] | – | – | – | –
17 | > 10000 | inactive | 30 | 90 | COc1ccc(-c2ccc3c(c2)C(=O)NC[C@@H]2CN(C)C[C@@H]32)cc1C (relative stereo) [Example 315, Trans-8-(4-methoxy-3-methylphenyl)-2-methyl-2,3,3a,4,5,10b-hexahydropyrrolo[3,4-d][2]benzazepin-6(1H)-one] | – | – | – | –
18 | > 10000 | inactive | 7 | 80 | COc1ccc(-c2ccc3c(c2)C(=O)NC[C@@H]2CN(C)C[C@@H]32)cc1F (relative stereo) [Example 316, Trans-8-(3-fluoro-4-methoxyphenyl)-2-methyl-2,3,3a,4,5,10b-hexahydropyrrolo[3,4-d][2]benzazepin-6(1H)-one] | – | – | – | –
19 | > 10000 | inactive | 70 | 75 | COc1c(C)cc(-c2ccc3c(c2)C(=O)NC[C@@H]2CN(C)C[C@@H]32)cc1C (relative stereo) [Example 317, Trans-8-(4-methoxy-3,5-dimethylphenyl)-2-methyl-2,3,3a,4,5,10b-hexahydropyrrolo[3,4-d][2]benzazepin-6(1H)-one] | – | – | – | –
20 | > 10000 | inactive | 3 | 90 | CN1C[C@H]2CNC(=O)c3cc(-c4ccc5c(c4)CCO5)ccc3[C@@H]2C1 (relative stereo) [Example 321, Trans-8-(2,3-dihydro-1-benzofuran-5-yl)-2-methyl-2,3,3a,4,5,10b-hexahydropyrrolo[3,4-d][2]benzazepin-6(1H)-one] | – | – | – | –
21 | > 10000 | inactive | 20 | 80 | CN1C[C@H]2CNC(=O)c3cc(-c4cc(F)c(F)c(F)c4)ccc3[C@@H]2C1 (relative stereo) [Example 322, Trans-2-methyl-8-(3,4,5-trifluorophenyl)-2,3,3a,4,5,10b-hexahydropyrrolo[3,4-d][2]benzazepin-6(1H)-one] | – | – | – | –
22 | > 10000 | inactive | 9 | 90 | COc1ccc(F)c(-c2ccc3c(c2)C(=O)NC[C@@H]2CN(C)C[C@@H]32)c1 (relative stereo) [Example 323, Trans-8-(2-fluoro-5-methoxyphenyl)-2-methyl-2,3,3a,4,5,10b-hexahydropyrrolo[3,4-d][2]benzazepin-6(1H)-one] | – | – | – | –
23 | > 10000 | inactive | 3 | 85 | CN1C[C@H]2CNC(=O)c3cc(-c4ccc5c(c4)OCC5)ccc3[C@@H]2C1 (relative stereo) [Example 324, Trans-8-(2,3-dihydro-1-benzofuran-6-yl)-2-methyl-2,3,3a,4,5,10b-hexahydropyrrolo[3,4-d][2]benzazepin-6(1H)-one] | – | – | – | –
